The text below walks through data of patent US10723702B2, “Photocrosslinking reagents and methods of use thereof” (Northwestern University, priority 2015, dated 2020).

pKd: −log10 of the molar value. “Also recorded” adds a separate entry of the source.

Data set [1] relates to UbcH7 mutants with a single cysteine available. In words: Alkylation conversion of UbcH7 mono-cysteine mutants by crosslinker, estimated by LCMS. Conditions: all mono-cysteine UbcH7 mutants; intact protein mass spectrometry. Format: biochemical, human. On the procedure:
Crosslinker in DMF (500 mM, 5 mM final concentration) was added to a UbcH7 cysteine mutant (100-200 μM in UbcH7 storage buffer; 1% DMF v/v final concentration). The resulting reaction mixture was mixed by pipetting, covered with aluminum foil, and rocked at room temperature (crosslinkers 1), or 4° C. (crosslinker 2 and 3) for 90 minutes. Immediately following, the solution was desalted/exchanged into PBS(B) with a Zeba Spin Desalting Column (7 kDa MWCO Pierce), frozen in N2(l), and stored at −80° C. The extent of alklylation was analyzed by LC-MS.
(§1) Alkylation of UbcH7 cysteine mutants occurred readily by incubating 50-300 μM UbcH7 with 5 mM crosslinker 1 at room temperature for 90 minutes before removing free crosslinker with a desalting column. […] The UbcH7 CΔS-1 mutants (10 μM) were then mixed with the E6AP catalytic HECT domain (10 μM) and irradiated at 365 nm for 10 minutes in a 96-well plate. The reaction mixtures were then resolved with reducing SDS-PAGE and analyzed with anti-UbcH7 western blot. Photocrosslinking of UbcH7 to E6AP depends on the presence of both UV irradiation and E6AP (FIG. 6).

Data set [2] relates to E6AP HECT domain. In words: Photocrosslinking of crosslinker-alkylated UbcH7 to E6AP HECT (365 nm, SDS-PAGE/western blot). Format: biochemical. Conditions: for Crosslinking of E6AP by UbcH7 CΔS F63A mutants or their Ub oxyesters bearing crosslinker: F63A negative control. On the procedure: (§2) FIG. 4. […] UbcH7 CΔS E93C-2 or UbcH7 CΔS E93C-3 (10 μM final concentration) was incubated with E6AP-HECT (10 μM final concentration) in PBS(B) with 6 μM Tween-20 and 1 mM DTT. After keeping samples in the dark or irradiating at 365 nm for 10 minutes, they were quenched with 6× Laemmli buffer and β-mercaptoethanol (β-ME) and then boiled at 95° C. for 5 minutes. Covalently crosslinked protein complexes were resolved by SDS-PAGE and visualized by western blot and coomassie.
(§3) E6AP HECT was exchanged into crosslinker buffer with Zeba Spin Desalting Column and mixed (14 μM final concentration, 480 μg) with Tween-20 (6 μM), DTT (1 mM) in PBS(B) in a 1.5 mL tube. The reaction mixture was then taken to a darkened room where alkylated UbcH7 (14 μM, final concentration, 203 μg) was added (final volume of reaction mixture was 790 μL). The solution was mixed by pipetting and then transferred to four wells of a 96 well plate (Costar #3370). The plate was placed 3 cm below a UV lamp (UVP 3UV-38 3UV Lamp; 8 watt, 115V ˜60 Hz, 0.16 Amps) and irradiated at 365 nm for 10 minutes.
(§4) Following irradiation, the sample was mixed with Laemmli buffer and β-mercaptoethanol (230 mM final concentration) and boiled for five minutes. Crosslinking experiments in main text FIGS. 2, 3, and 4 were performed similarly with 20-50 μL total volume and with the indicated final concentrations of UbcH7 and E6AP.
as §1
(A western blot detects proteins with antibodies after separation by electrophoresis.)

For data set [3], the system named is UbcH7. In words: UbcH7 C86S-Ub oxyester formation by crosslinker-alkylated UbcH7. To be noted: oxyester formation and ubiquitin transfer retained. The class given is biochemical, human. On the procedure: (§5) FIGS. 5A-C. Crosslinker-modified UbcH7 charged with ubiquitin. UbcH7 C86S-Ub oxyester interacts with E6AP to transfer ubiquitin. (A.) Each alkylated mutant is competent to form an UbcH7 C86S-Ub oxyester except when the catalytic cysteine C86 is alkylated with crosslinker (lane 9). UbcH7 mutants alkylated by crosslinker 1 at the indicated residue (5 μM) were incubated with Ube1 (200 nM), ubiquitin (10 μM) in the dark at 37° C. for 15 hours in 25 mM HEPES pH 7.5, 50 mM NaCl, 10 mM MgCl2, 1 mM DTT with or without ATP (185 μM). Reactions were quenched with 6× Laemmli buffer with β-ME and incubated at room temperature for 5 minutes without boiling. The “*” marks a faint GST impurity. […] (C.) UbcH7 CΔS-Ub oxyester alkylated with crosslinker transfers ubiquitin to E6AP HECT (compare to FIG. 2B where E6AP HECT is a single band). […] UbcH7-Ub oxyester (5 μM) was incubated with or without E6AP-HECT (5 μM) in PBS(B) for 20 hours at room temperature. Reactions were quenched with 6× Laemmli buffer with β-ME and incubated at room temperature for 5 minutes without boiling.

The test system of another data set is UbcH7/E6AP interaction. Description: Ubiquitin transfer from alkylated UbcH7 CΔS-Ub oxyester to E6AP HECT. Format: biochemical. Conditions: UbcH7-Ub oxyester 5 μM, E6AP-HECT 5 μM, PBS(B), 20 hours, room temperature. On the procedure: as §5
Data set [4] addresses T1, E6AP HECT domain (Homo sapiens, UniProt Q05086).
T1 construct: Underlined residues remain from the GST tag and are not part; GST (N, cleaved yes); made in house; host or cells: E. coli Rosetta (DE3) pLysS (E6AP HECT); E. coli BL21 (UbcH7)
T1 sequence (Q05086 with tags, fused parts or gaps): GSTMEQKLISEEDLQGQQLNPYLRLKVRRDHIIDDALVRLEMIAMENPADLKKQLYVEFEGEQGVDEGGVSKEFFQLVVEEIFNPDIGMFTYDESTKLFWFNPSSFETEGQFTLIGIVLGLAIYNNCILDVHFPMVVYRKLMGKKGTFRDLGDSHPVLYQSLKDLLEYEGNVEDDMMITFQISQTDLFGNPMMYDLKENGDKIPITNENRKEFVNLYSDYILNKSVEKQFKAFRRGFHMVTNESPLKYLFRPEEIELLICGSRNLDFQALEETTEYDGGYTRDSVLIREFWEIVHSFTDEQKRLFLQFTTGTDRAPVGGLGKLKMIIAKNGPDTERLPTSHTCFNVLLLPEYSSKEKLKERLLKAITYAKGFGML
Description: Photocrosslinking of crosslinker-alkylated UbcH7 to E6AP HECT (365 nm, SDS-PAGE/western blot). The class given is biochemical. Conditions: crosslinker on UbcH7 CΔS E93C 10 μM, E6AP-HECT 10 μM, 365 nm 10 minutes. On the procedure:
as §2, §3, §4, §1

Data set [5] is described as follows: Acid cleavage of crosslinker in photocrosslinked UbcH7-E6AP complex. Format: physicochemical. To be noted: pH 1, 55° C. On the procedure: FIGS. 12A-E. Mass spectrometry protocol to identify crosslinker modifications on E6AP. A. The band corresponding to the crosslinked UbcH7-E6AP complex was excised and loaded to the denaturing electroelution device. After eluting complexes from the gels, photocrosslinked protein complexes were cleaved under acidic conditions, trypsinized, and then analyzed. B. Crosslinker 2 is cleavable at pH 1, 55° C. I. UbcH7-E6AP crosslink. II. E6AP-HECT. C. By conducting the acidic cleavage of photocrosslinked proteins in Tris-Glycine-SDS buffer, we avoided hydrolysis of the peptide backbone. I. UbcH7-E6AP crosslink. II. E6AP-HECT. III. UbcH7. D. MS^2 identification of E6AP Lys^847 modified by crosslinker 2. y-ions are highlighted. The full spectrum and b-ion identification can be found in Spectral Appendix I. E. Residue map of the E6AP C-terminus indicating sites of crosslinker modification by UbcH7 CΔS E93C-2/3 or UbcH7 CΔS E93C Ub-2/3.
Electroelution fractions in Tris-Glycine-SDS buffer were treated with 1 M aqueous HCl (protein sample/1 M HCl 4:1 v/v) to obtain pH 1 in a 1.5 microcentrifuge tube (one gel's worth of elution per tube). […]
To identify the photocrosslinked sites of E6AP, a mass spectrometry protocol was developed. […] Finally, protein was precipitated with acetone, digested with trypsin, and then analyzed the peptides with an Orbitrap Velos.

Data set [6] has as its target T2, UbcH7 (Homo sapiens, UniProt P68036, C137S/C17S/C86S/E93C).
T2 construct: Underlined residues remain from the GST tag and are not part; GST (N, cleaved yes); made in house; host or cells: E. coli BL21 (UbcH7)
Description: UbcH7 C86S-Ub oxyester formation by crosslinker-alkylated UbcH7. The class given is biochemical. To be noted: crosslinker on UbcH7 CΔS E93C; Ube1, ubiquitin, ATP, 37° C., 15 hours. On the procedure: as §5

The target of a further data set is T3, E6AP-HECT (Homo sapiens, UniProt Q05086).
T3 sequence (Q05086 495-852 isoform Q05086-2 limits assumed): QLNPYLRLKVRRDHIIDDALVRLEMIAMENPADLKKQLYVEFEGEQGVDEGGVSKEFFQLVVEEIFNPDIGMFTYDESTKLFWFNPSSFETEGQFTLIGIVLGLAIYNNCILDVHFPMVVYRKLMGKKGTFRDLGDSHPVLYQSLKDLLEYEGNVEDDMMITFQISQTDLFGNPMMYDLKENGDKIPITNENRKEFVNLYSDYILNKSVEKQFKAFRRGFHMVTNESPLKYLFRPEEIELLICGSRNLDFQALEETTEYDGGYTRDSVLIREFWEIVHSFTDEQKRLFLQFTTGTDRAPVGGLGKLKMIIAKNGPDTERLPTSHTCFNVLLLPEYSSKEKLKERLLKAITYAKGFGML
To be noted: read-out: Binding affinity Kd for E6AP-HECT; cited from earlier work.

T2 sequence (P68036 with tags, fused parts or gaps C17S/C86S/E93C/C137S): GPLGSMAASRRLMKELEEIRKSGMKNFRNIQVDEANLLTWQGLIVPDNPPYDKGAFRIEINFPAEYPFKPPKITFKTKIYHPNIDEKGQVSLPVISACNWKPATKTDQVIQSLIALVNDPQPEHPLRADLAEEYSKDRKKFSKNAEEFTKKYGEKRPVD

With `CC1(CCNC(=O)CI)N=N1` [Crosslinker 1], the “Labeling (mono-alkylation) of UbcH7 cysteine mutants, in words” value (shortened to “Labeling (mono-alkylation)”) in data set [1] is “quantitatively labeled every UbcH7 cysteine mutant; also recorded: near quantitative mono-alkylation”. Moreover, the “Crosslinking of E6AP by UbcH7 CΔS F63A mutants or their Ub oxyesters bearing crosslinker” value with E6AP HECT domain [2] is on record as “did not crosslink E6AP”. The “Crosslinking efficiency by crosslinker position on UbcH7” value in the data set with E6AP HECT domain [2] (crosslinker placed at UbcH7 CΔS E93C or catalytic cysteine Cys86, 10 μM each, 365 nm 10 minutes) is “most efficient crosslinking”. Also, the “Effect of mutagenesis and alkylation with crosslinker on E2 enzyme structure” value (“Effect of mutagenesis and alkylation” below) with UbcH7 [3] is reported as “did not compromise the E2 enzyme structure”. In addition, the “Interference of crosslinker with UbcH7/E6AP interaction (ubiquitin transfer to E6AP HECT)” value with UbcH7/E6AP interaction is reported as “does not interfere with the UbcH7/E6AP interaction”.

For `CC1(CCOS(=O)(=O)NC(=O)CI)N=N1` [Crosslinker 2], the “Labeling (mono-alkylation)” value in data set [1] is on record as “not as reactive with some of the mutants”. Also, the Photocrosslinking efficiency result on E6AP HECT domain [4] is given as “equal photocrosslinking efficiency”. For the same compound, the “Crosslinking of E6AP by UbcH7 CΔS F63A mutants or their Ub oxyesters bearing crosslinker” value in the data set with E6AP HECT domain [2] is reported as “did not crosslink E6AP”. The “Cleavage of crosslinker under acidic conditions” value in data set [5] is recorded as “cleavable”. Moreover, at UbcH7 [6], the “Effect of crosslinker on efficiency of UbcH7-Ub oxyester formation” value is given as “does not affect the efficiency of UbcH7-Ub oxyester formation”. Further, the “Effect of mutagenesis and alkylation” value with UbcH7 [3] was “did not compromise the E2 enzyme structure”.

Consider `[2H]C([2H])([2H])C1(C([2H])([2H])COS(=O)(=O)NC(=O)CI)N=N1` [Crosslinker 3], for which the “Labeling (mono-alkylation)” value in data set [1] is on record as “not as reactive with some of the mutants”. Moreover, the Photocrosslinking efficiency result at E6AP HECT domain [4] is “equal photocrosslinking efficiency”. In addition, in the data set with UbcH7 [3], the “Effect of mutagenesis and alkylation” value is “did not compromise the E2 enzyme structure”.

The pKd is the negative decadic logarithm of the Kd, by convention in mol/L. With “UbcH7: E2 enzyme upstream of E6AP (SEQ ID NO: 2)”, the negative logarithm of the Kd (pKd) with E6AP-HECT was 5.30.
